Measurements taken from patent US12576107B2, “Methods of treating chronic inflammatory diseases” (METIMEDI PHARMACEUTICALS CO., LTD., priority 2018, dated 2026).

Columns and labels:
6-OHDA injected rats = test: Parkinson's disease model, desipramine and 6-OHDA injection; assay type: in vivo, Sprague-Dawley (SD) rats; details: 2 mg/kg daily subcutaneous 21 days; 6-OHDA rats
Protocol: Animals. […] Eight-week old male Sprague-Dawley (SD) rats were obtained from Samtako Co. (Osan, Gyeonggi-do, Republic of Korea) and bred under specific-pathogen-free (SPF) conditions. All animals were maintained in a 12-hour light/dark cycle at 22-25° C. with free access to food and water.
Desipramine (12.5 mg/kg; noradrenaline transporter blocker; Sigma Aldrich, St. Louis, USA) was dissolved in saline for intraperitoneal injection. 6-OHDA (20 μg/rat, Sigma Aldrich, St. Louis, USA) was dissolved in saline for intracranial injection.
Injection of desipramine and 6-OHDA. The animals were injected with desipramine into the abdominal cavity (intraperitoneal injection) 30 min before 6-OHDA injection. 30 min after Desipramine injection, the animals were placed in a small acrylic cage that was coupled with an anesthesia machine that allowed them to breathe freely under gaseous anesthesia (2% isoflurane, Spartanburg, SC, USA). […] The animal fur of head was shaved with an electric clipper, and the skin was swabbed with iodine. All the surgical materials disinfected with 70% ethanol. Hamilton syringe barrel inner space was cleaned with distilled water and 70% ethanol. The Hamilton syringe was placed in the syringe holder. […] The three coordinates (AP: −5.6, LM: 2.0, and DV: −7.6) on the manipulator (in mm) were read and used as the starting point. […]

[1] = tested on: collagen-induced rheumatoid arthritis mice; test: Rheumatoid arthritis model, Type II collagen induction; assay type: in vivo, DBA1/J mice; details: 21 days after treatment
Protocol: Animals. […] Six-week old male DBA1/J mice were obtained from Japan SLC Inc. (Shizuoka, Japan) and bred under specific-pathogen-free (SPF) conditions. All animals were maintained in a 12-hour light/dark cycle at 22-25° C. with free access to food and water.
Preparation of agents. Two mg/mL Type II collagen was mixed with the same volume of complete Freund's adjuvant (CFA) for primary induction of rheumatoid arthritis. Two mg/mL Type II collagen was mixed with the same volume of incomplete Freund's adjuvant (IFA) for secondary induction of rheumatoid arthritis.
Primary induction: 0.1 mL of the mixed solution (Type II collagen+CFA) was injected subcutaneously into the area of 1.5 cm from the base of tail of mice. The administration site and depth were the same in all mice.
Secondary induction: 21 days after primary induction, 0.1 mL of the mixed solution (Type II collagen+IFA) was injected subcutaneously into the area of 1.5 cm from the base of tail of mice. The administration site and depth were the same in all mice.
Histological analysis. The mice foot and knee joint were dissected and fixed (4% paraformaldehyde) and decalcified for 2 days at 4° C. […] Mount with mounting medium.

CC(O)C(=O)[O-].CC(O)C(=O)[O-].[Ca+2] (stereo not drawn) [calcium lactate]
dopaminergic neuron (tyrosine hydroxylase staining) (6-OHDA injected rats): Recovery | inflammatory edema in the toes and knee joint ([1]; 2 mg/kg daily subcutaneous): clearly decreased | morphology of toes and knee joint vs. normal control [1]: morphologically recovered
